In ChEMBL document CHEMBL1152265, “The design, synthesis and biological evaluation of 7-alkoxy-4-heteroarylamino-3-cyanoquinolines as dual inhibitors of c-Src and iNOS” (Bioorg Med Chem Lett, 2008):

Legend:
[1] = molecular target: T1, Nitric oxide synthase, inducible (Mus musculus, UniProt P29477); experiment: Inhibition of iNOS in mouse ANA1 cells; format: cell-based
T1 sequence (P29477 whole entry): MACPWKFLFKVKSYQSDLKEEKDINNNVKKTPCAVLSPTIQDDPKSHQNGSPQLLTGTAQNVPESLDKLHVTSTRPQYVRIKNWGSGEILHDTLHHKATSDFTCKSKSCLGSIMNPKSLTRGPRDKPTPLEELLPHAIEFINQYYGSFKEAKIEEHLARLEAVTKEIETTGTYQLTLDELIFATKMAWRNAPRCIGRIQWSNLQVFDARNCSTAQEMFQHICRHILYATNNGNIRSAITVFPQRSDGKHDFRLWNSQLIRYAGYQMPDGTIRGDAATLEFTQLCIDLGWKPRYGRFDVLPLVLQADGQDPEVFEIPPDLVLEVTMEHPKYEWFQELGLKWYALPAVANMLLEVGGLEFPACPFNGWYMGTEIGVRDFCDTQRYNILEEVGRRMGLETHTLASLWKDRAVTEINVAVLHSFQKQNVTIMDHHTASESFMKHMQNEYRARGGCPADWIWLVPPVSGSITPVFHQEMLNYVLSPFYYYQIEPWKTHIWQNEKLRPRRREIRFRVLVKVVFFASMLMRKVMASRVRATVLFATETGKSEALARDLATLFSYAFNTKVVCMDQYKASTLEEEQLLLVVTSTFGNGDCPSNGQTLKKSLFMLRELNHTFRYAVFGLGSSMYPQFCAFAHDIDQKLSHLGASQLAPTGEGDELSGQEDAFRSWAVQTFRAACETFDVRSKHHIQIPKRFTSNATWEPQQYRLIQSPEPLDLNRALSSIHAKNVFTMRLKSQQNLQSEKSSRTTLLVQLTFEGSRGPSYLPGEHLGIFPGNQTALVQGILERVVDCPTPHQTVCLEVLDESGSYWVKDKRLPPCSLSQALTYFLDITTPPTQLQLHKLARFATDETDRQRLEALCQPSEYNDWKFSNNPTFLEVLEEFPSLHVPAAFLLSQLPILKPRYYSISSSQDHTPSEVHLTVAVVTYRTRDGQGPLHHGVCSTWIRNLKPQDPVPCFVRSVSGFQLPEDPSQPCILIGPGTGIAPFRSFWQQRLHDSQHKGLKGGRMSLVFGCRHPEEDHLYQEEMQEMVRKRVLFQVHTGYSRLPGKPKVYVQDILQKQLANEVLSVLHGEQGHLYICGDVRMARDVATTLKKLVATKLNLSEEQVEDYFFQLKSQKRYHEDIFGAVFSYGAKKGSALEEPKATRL

[2] = molecular target: Proto-oncogene tyrosine-protein kinase Src (Homo sapiens, UniProt P12931); experiment: Inhibition of cSrc
[3] = tested on: A549; experiment: Antiproliferative activity against human A549 cells assessed as survival at 10 uM by sulforhodamine B assay; format: functional; conditions: read-out: Activity
[4] = tested on: AGS; experiment: Antiproliferative activity against human AGS cells assessed as survival at 10 uM by sulforhodamine B assay; format: functional; conditions: read-out: Activity
[5] = tested on: HepG2; experiment: Antiproliferative activity against human HepG2 cells assessed as survival at 10 uM by sulforhodamine B assay; format: functional; conditions: read-out: Activity
[6] = tested on: PC-3; experiment: Antiproliferative activity against human PC3 cells assessed as survival at 10 uM by sulforhodamine B assay; format: functional; conditions: read-out: Activity
[7] = tested on: HT-29; experiment: Antiproliferative activity against human HT-29 cells assessed as survival at 10 uM by sulforhodamine B assay; format: functional; conditions: read-out: Activity

Proto-oncogene tyrosine-protein kinase Src, sequence (P12931 2-536 limits assumed): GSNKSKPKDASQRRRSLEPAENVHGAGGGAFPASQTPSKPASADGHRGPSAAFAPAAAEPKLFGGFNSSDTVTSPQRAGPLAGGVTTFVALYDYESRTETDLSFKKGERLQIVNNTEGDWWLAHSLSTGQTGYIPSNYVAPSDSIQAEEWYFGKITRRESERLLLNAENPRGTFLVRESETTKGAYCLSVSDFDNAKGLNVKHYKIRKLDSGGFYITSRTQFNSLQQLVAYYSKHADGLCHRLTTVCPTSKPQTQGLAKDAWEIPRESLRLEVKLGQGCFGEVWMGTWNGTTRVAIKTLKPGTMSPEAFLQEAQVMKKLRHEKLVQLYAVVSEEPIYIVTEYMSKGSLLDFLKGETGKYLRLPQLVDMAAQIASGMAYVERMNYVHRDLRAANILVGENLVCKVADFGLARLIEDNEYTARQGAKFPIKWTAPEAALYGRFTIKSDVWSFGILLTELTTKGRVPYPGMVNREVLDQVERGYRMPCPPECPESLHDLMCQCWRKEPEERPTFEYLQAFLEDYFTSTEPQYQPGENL

Row | SMILES | IC50 [1] [µM] | IC50 [2] [µM] | viability at 10 µM [3] [%] | viability at 10 µM [4] [%] | viability at 10 µM [5] [%] | viability at 10 µM [6] [%] | viability at 10 µM [7] [%]
1 | COc1cc2c(Nc3ccc4nc(N)sc4c3)c(C#N)cnc2cc1OCCCN1CCNCC1 | 105 | 0.0207 | – | – | – | – | –
2 | Cc1cc2c(Nc3ccc4nc(N)sc4c3)c(C#N)cnc2cc1OCCCN1CC(C)CC(C)C1 (configuration not stated) | 10.5 | 0.267 | 53.6 | 65.5 | 42.2 | 63 | 60.6
3 | CCN(CC)CCCOc1cc2ncc(C#N)c(Nc3ccc4nc(N)sc4c3)c2cc1C | 46.8 | 0.042 | – | – | – | – | –
4 | Cc1cc2c(Nc3ccc4nc(N)sc4c3)c(C#N)cnc2cc1OCCCN1CCC(C)CC1 | 12.7 | 0.0534 | – | – | – | – | –
5 | COc1cc(Nc2c(C#N)cnc3cc(OCCCN4CCN(C)CC4)c(OC)cc23)c(Cl)cc1Cl [BOSUTINIB] | – | – | 9.32 | 3.8 | 9.2 | 7.81 | 2.84
6 | Cc1cc2c(Nc3ccc4nc(N)sc4c3)c(C#N)cnc2cc1OCCCN1CC(C)NC(C)C1 (configuration not stated) | 89.1 | 0.0366 | – | – | – | – | –
7 | Cc1cc2c(Nc3ccc4nc(N)sc4c3)c(C#N)cnc2cc1OCCN1CCCCC1 | 26.7 | 0.0348 | 55.4 | 61 | 55.4 | 77.7 | 42.7
8 | Cc1cc2c(Nc3ccc4nc(N)[nH]c4c3)c(C#N)cnc2cc1OCCCN1CCCC1 | 24.8 | 0.159 | – | – | – | – | –
9 | Cc1cc2c(Nc3ccc4nc(N)sc4c3)c(C#N)cnc2cc1OCCCN1CCN(C)CC1 | 37.1 | 0.0506 | 64.1 | 68.1 | 40.5 | 59.5 | 31.6
10 | Cc1cc2c(Nc3ccc4nc(N)sc4c3)c(C#N)cnc2cc1OCCCN1CCOCC1 | 31.8 | 0.0811 | – | – | – | – | –
11 | Cc1cc2c(Nc3ccc4nc(N)sc4c3)c(C#N)cnc2cc1OCCCN1CCNCC1 | 17.3 | 0.129 | – | – | – | – | –
12 | Cc1cc2c(Nc3ccc4nc(N)[nH]c4c3)c(C#N)cnc2cc1OCCCN(C)C | 13.2 | 0.143 | – | – | – | – | –
